PMC11806654, “In Vitro Discovery of a Therapeutic Lead for HFMD From a Library Screen of Rocaglates/Aglains” (Journal of Medical Virology, 2025)
Entries after “also recorded” stand apart in the source; their conditions may differ. Where two headings read alike, the source gives them in different places.

Columns and labels:
[1] = tested on: EV-A71; assay: High-throughput immunofluorescence antiviral screen in NSC-34 cells; assay type: cell-based, human enterovirus A71; conditions: for log reduction at 10 µM: Enterovirus A
[2] = tested on: NSC-34 cells; assay: alamarBlue cytotoxicity screen; conditions: screen, 10 µM
[3] = tested on: SARS-CoV-2; set-up: method as in PMID 39117283; conditions: cited from earlier work
[4] = tested on: NF-κB; conditions: read-out: NF-κB inhibition IC50; cited from earlier work
[5] = tested on: A549; set-up: method as in PMID 11170675; conditions: A549 cell line; cited from earlier work
[6] = tested on: P-388; set-up: method as in PMID 11170675; conditions: P-388 cell line; cited from earlier work
[7] = tested on: EV-A71; assay: Plaque-assay antiviral validation in NSC-34 cells; assay type: cell-based, human enterovirus A71; conditions: for Maximum viral titre reduction observed in dose response (Log): EV-A71 MOI 1, plaque assay; for EC50: Enterovirus A, EVA71, EV-A71 MOI 1, plaque assay
Procedure: (§1) The complete cytotoxicity profiles of selected rocaglate/aglain derivatives against NSC‐34 or SH‐SY5Y cells were determined via the alamarBlue assay. Treated cells were incubated with the compounds for 12 h (NSC‐34) or 24 h (SH‐SY5Y). Negative and vehicle controls of this assay involved cells treated with fresh reduced serum DMEM and 0.1% DMSO, respectively. Cell viability in each treatment group was determined based on the intensity of colorimetric changes of each treatment group. […] Following incubation, infected cells were rinsed with sterile 1X PBS to remove any unbound virus particles. Specific concentrations of respective compounds were added to the cells in triplicates and incubated for 12 h (NSC‐34) or 24 h (SH‐SY5Y). At the end of the incubation period, two cycles of freeze‐thaws (−80°C; 37°C) were performed on the plates before collection of supernatants from each treatment or control group for virus titre measurement via plaque assay, as described.
(§2) (A) NSC‐34 cells were treated with various concentrations of respective compounds, in the presence or absence of EV‐A71 (MOI 1) infection. Resulting cell viability and virus yield from respective experimental setups were determined via alamarBlue and plaque assays, respectively. […] For (B), (C) and (D), virus titres were represented in bars and shown on the left‐hand y‐axis, whereas cell viabilities were presented in lines and illustrated on the right‐hand y‐axis.
(§3) Figure S1. Validation of cytotoxicity and antiviral profiles of compound 13 in NSC-34 cells. NSC-34 cells were treated with specific concentrations of compound 13 in the presence or absence of EV-A71 (MOI 1) infection. Resulting cell viability and virus yield from respective experimental setups were determined via alamarBlue^TM and plaque assays, respectively.

[8] = alamarBlue cytotoxicity dose response, NSC-34; conditions: mouse
Procedure: as §1, §2, §3

[9] = tested on: EV-A71; assay: Plaque-assay antiviral dose response in RD cells; assay type: cell-based, human enterovirus A71; conditions: Enterovirus A, EVA71
Procedure: as §1
(§4) (A) NSC‐34 cells were treated with various concentrations of respective compounds, in the presence or absence of EV‐A71 (MOI 1) infection. Resulting cell viability and virus yield from respective experimental setups were determined via alamarBlue and plaque assays, respectively. […]

[10] = alamarBlue cytotoxicity dose response, RD; assay type: cell-based; conditions: human, RD cells
[11] = tested on: EV-A71; assay: Plaque-assay antiviral dose response in SH-SY5Y cells; assay type: cell-based, human enterovirus A71
Procedure: as §1, §4

[12] = alamarBlue cytotoxicity dose response, SH-SY5Y; assay type: cell-based; conditions: human, SH-SY5Y cells
Procedure: as §1, §4

[13] = tested on: EV-A71; assay: Plaque-assay antiviral dose response in primary HBMECs; assay type: cell-based, human enterovirus A71; conditions: Enterovirus A, EVA71
Procedure: (§5) Evaluation of cytotoxicity and antiviral profiles of compound 13 in primary human brain microvascular endothelial cells (HBMECs). HBMECs were treated with specific concentrations of compound 13, in the presence or absence of EV-A71 (MOI 1) infection. Resulting cell viability and virus yield from respective experimental setups were determined via alamarBlue^TM and plaque assays, respectively.

[14] = alamarBlue cytotoxicity dose response, HBMECs; assay type: cell-based; conditions: human, primary human brain microvascular endothelial cells (HBMECs)
Procedure: as §5

[15] = tested on: CV-A6; assay: Pan-enterovirus plaque assay in SH-SY5Y cells, CV-A6; assay type: cell-based
Procedure: as §1, §4

[16] = tested on: CV-A16; assay: Pan-enterovirus plaque assay in SH-SY5Y cells, CV-A16; assay type: cell-based, Coxsackievirus A16
Procedure: as §1, §4

[17] = tested on: EV-A71; assay: Time-of-addition / time-of-removal assay in SH-SY5Y cells; assay type: cell-based, human enterovirus A71; conditions: 8 μM
[18] = tested on: EV-A71; assay: Entry-bypass assay (viral RNA transfection) in SH-SY5Y cells; assay type: cell-based, human enterovirus A71
Procedure: Having excluded the virus attachment and entry steps, we deemed it likely that aglain 13 targets the early post‐entry stages of EV‐A71 life cycle involving the initial virus uncoating, viral RNA genome replication or protein production. As packaging and secretion of newly synthesized EV‐A71 virions from infected cells generally begin after 6 h.p.i., compound 13 is unlikely to interfere with the later phases of the virus life cycle (Figure 6A). The ability of compound 13 to interfere with EV‐A71 post‐entry events was further corroborated via our entry‐bypass assay wherein host cells were first transfected with in vitro isolated viral RNA before compound treatment (Figure 6D). […] As compound 13 targets the intracellular replication steps of EV‐A71, its effects on two primary pre‐packaging stages of the virus life cycle, namely viral RNA replication and protein production, were evaluated.

[19] = tested on: positive- and negative-sense RNA of EV-A71; assay: qRT-PCR strand-specific viral RNA quantification; assay type: cell-based, human enterovirus A71; conditions: 6 and 8 µM, 12 and 24 h.p.i., SH-SY5Y cells
[20] = in vitro; conditions: mouse
[21] = tested on: EV-A71 VP2; assay: Immunoblotting of viral protein; conditions: SH-SY5Y cells, versus vehicle control
Procedure: Cells from specific treatment and control groups were lysed with lysis buffer containing 1X Laemmli buffer. The resulting cell lysates were heated for 10 min at 95°C and subjected to SDS‐PAGE run in 10% acrylamide gels at 100 V for 2 h. The proteins were then transferred to a polyvinylidene fluoride membrane using the Trans‐Blot Turbo system (Bio‐Rad). Following a 20 min membrane blocking using 2% bovine serum albumin (BSA) dissolved in Tris‐buffered saline‐Tween 20 (TBST), specific viral protein and host loading controls were probed using the mouse antibodies targeting EV‐A71 VP2 (MAB979) and host β‐actin, respectively. After 1 h incubation with constant rocking at room temperature, the membranes were subjected to three rounds of washes using TBST before incubation at room temperature with horseradish peroxidase (HRP) conjugated goat anti‐mouse IgG secondary antibody (Thermo Fisher Scientific) for 1 h. Following three rounds of membrane washing with TBST, specific protein bands were developed using the Immobilon Western Chemiluminescent HRP substrate (Merck Millipore) for 3 min. […]
Lysates of EV‐A71 (MOI 1)‐infected SH‐SY5Y cells treated with specific concentrations of compound 13 were used for (A) qRT‐PCR‐based viral strand‐specific RNA quantification or (B) immunoblotting measurement of specific protein levels. […]

[22] = tested on: EV-A71; assay: Co-treatment assay in SH-SY5Y cells; conditions: compound present during infection
Procedure: (§6) The assays were performed in SH‐SY5Y cells in triplicates and resulting virus titres were quantified via plaque assays as previously described [27].
(§7) (A) Time‐of‐addition (TOA) and time‐of‐removal (TOR) of compound 13 (8 μM) at specific time points across the EV‐A71 replication cycle in SH‐SY5Y cells. For TOA, virus‐containing media was aspirated and replaced with compound 13 (8 μM) at 0, 2, 4, 6, 8, 10, 12 or 18 h postinfection (h.p.i.). […] At 24 h.p.i., supernatant from each treatment and control group was collected for virus quantification via plaque assay. Separately, SH‐SY5Y cells were infected with EV‐A71 (MOI 1) and treated with specific concentrations of compound 13 according to previously published experimental schemes for (B) pre‐treatment, (C) co‐treatment and (D) entry‐bypass assays [27]. At 24 h.p.i., supernatant was collected and used for virus yield measurement via plaque assay. Every assay was performed in triplicates with error bars representing standard deviation from the mean of triplicates. 0.1% DMSO served as the mock control group of respective assays.
(§8) In the pre‐treatment set‐up, host cells were first treated with the compound before virus challenge. […] Conversely, in the co‐treatment assay extracellular virions were treated with the compound before infecting the cells. […]

[23] = tested on: EV-A71; assay: Pre-treatment assay in SH-SY5Y cells; conditions: cells exposed to compound before infection
Procedure: as §6, §7, §8

[24] = tested on: replication-competent EV-A71 replicon; assay: Nano-luciferase replicon assay, replication-competent; conditions: SH-SY5Y cells, 24 h
Procedure: (§9) Using DharmaFECT 1 transfection reagent (Dharmacon), SH‐SY5Y cells seeded in 96‐well plates were transfected with either our established replication‐competent or replication‐defective EV‐A71 replicon construct [27, 29] and incubated for 4 h. At the end of incubation, the transfected cells were washed with sterile 1X PBS and treated with 0.1% DMSO or respective concentrations of test compound or positive controls. Guanidine hydrochloride (GuHCl) was used as positive control for the replication‐competent replicon, and cycloheximide (CHX) was used as positive control for the replication‐defective replicon. After 24 h, luciferase signal detection was subsequently performed using the Nano‐Glo kit (Promega, Madison, WI, USA) with a GLOMAX Multi‐Detection System microplate reader (Promega, Madison, WI, USA).
(§10) Guanidine hydrochloride (GuHCl), an eukaryotic RNA transcription inhibitor [38], and cycloheximide (CHX), an inhibitor of the elongation phase during RNA translation [39], were used as positive controls of respective assays. 0.1% DMSO served as the mock control group of respective assays. Luminescence readings generated by SH‐SY5Y cells transfected with either the established replication‐competent or replication‐defective replicons [27] were measured using a microplate reader and normalized against the DMSO control. […]

[25] = tested on: replication-defective EV-A71 replicon; assay: Nano-luciferase replicon assay, replication-defective; conditions: SH-SY5Y cells, 24 h
Procedure: as §9, §10

[26] = alamarBlue cytotoxicity screen; conditions: mouse, NSC-34 cells
[27] = tested on: NSC-34 cells; assay: in vitro
Procedure: as §1, §2, §3

[28] = EVA71, screen, 10 µM, NSC-34 cells, EV-A71 MOI 1, 12 h, read-out: EV-A71 inhibition (logs), reduction in viral titre
[29] = EVA71, NSC-34, 12 h, read-out: EV-A71 inhibition (logs), reduction in viral titre, screen, 10 µM, NSC-34 cells, EV-A71 MOI 1, 12 h

Compound: CONC(=O)C1C(O)C2(O)c3c(OC)cc(OC)cc3OC2(c2ccc(OC)cc2)C1c1ccccc1 (stereo not shown) [Compound 3, CR‐1‐31b, reference compound]
- log reduction at 10 µM [1, 28]: > 2
- antiviral activity in screen ([1]; screen, 10 µM, NSC-34 cells): appreciable antiviral activity
- host cell cytotoxicity in screen [2]: unacceptably toxic; also recorded: high level of host cell cytotoxicity

Compound: COc1ccc(C23Oc4cc(OC)cc(OC)c4C24NC(C)=NC4(O)C(C(=O)N(C)OC)C3c2ccccc2)cc1 (stereo not shown) [Compound 4]
- log reduction at 10 µM [1, 29]: > 2
- antiviral activity in screen ([1]; screen, 10 µM, NSC-34 cells): appreciable antiviral activity
- inhibition of SARS-CoV-2 replication [3]: inhibition of SARS‐CoV‐2 replication
- host cell cytotoxicity in screen [2]: unacceptably toxic; also recorded: high level of host cell cytotoxicity

Compound: COC(=O)C1C(O)C2(O)c3c(OC)cc(OC)cc3OC2(c2ccc(OC)cc2)C1c1ccccc1 (stereo not shown) [Compound 6, reference compound]
- log reduction at 10 µM [1, 28]: > 2
- antiviral activity in screen ([1]; screen, 10 µM, NSC-34 cells): appreciable antiviral activity

Compound: COc1ccc(C23Oc4cc(OC)cc(OC)c4C(O)(C(C(=O)N4CCCC4OC)C2c2ccccc2)C3O)cc1 (stereo not shown) [Compound 8, (‐)‐ponapensin]
- IC50 [4]: 0.06 µM

Compound: CC=C(C)C(=O)NC1CCCN1C(=O)C1C(c2ccccc2)C2(c3ccc(OC)cc3)Oc3cc(OC)cc(OC)c3C1(O)C2O (stereo not shown) [Compound 9, (‐)‐elliptifoline]
- cytotoxic activity ED50 [5]: 18.9 µg/mL
- cytotoxic activity ED50 [6]: 3.4 µg/mL

Compound: COc1ccc(C23Oc4cc(OC)cc(OC)c4C(O)(C(c4c(F)c(F)c(F)c(F)c4F)C2c2ccccc2)C3O)cc1 (stereo not shown) [Compound 13]
- log reduction at 10 µM [1, 29]: 2.3
- downregulation of virus titer ([7]; 15 µM): approximately 2 logs
- selectivity index (SI = CC50/EC50) ([7]; EV-A71): 6.1
- Maximum viral titre reduction observed in dose response (Log) [7]: 2.53 Log
- EC50 [7]: 3.57 µM
- CC50 at 12 h [8]: 21.8 µM
- EC50 [9]: 0.43 µM
- CC50 [10]: 11.2 µM
- downregulation of virus titer ([11]; 8 µM, SH-SY5Y cells): approximately 2 logs
- EC50 ([11]; Enterovirus A, EVA71, EV-A71 in SH-SY5Y cells): 5.43 µM
- CC50 at 24 h [12]: 11 µM
- EC50 [13]: 32.8 µM
- CC50 [14]: 89.4 µM
- infectious CV-A6 titers ([15]; 6 and 8 µM, SH-SY5Y cells): significantly reduced
- EC50 ([15]; Enterovirus A, CVA6, CV-A6 in SH-SY5Y cells): 0.51 µM
- infectious CV-A16 titers ([16]; 6 and 8 µM, SH-SY5Y cells): significantly reduced
- EC50 ([16]; Enterovirus A, CVA16, CV-A16 in SH-SY5Y cells): 0.8 µM
- time of addition at which EV-A71 yields were suppressed ([17]; TOA): < 6 h.p.i.
- viral load on time-of-removal ([17]; TOR, every time point up to 18 h.p.i.): continuous reduction in the viral load
- suppression of virus yields, entry-bypass ([18]; 6 µM): 0.88 logs
- suppression of virus yields, entry-bypass ([18]; 8 µM): 2.27 logs
- positive- and negative-sense RNA of EV-A71 [19]: significant decrease
- viability at 10 µM ([20]; Cell Viability (%), screen, 10 µM, NSC-34 cells, 12 h): > 90%
- Cell Viability (%) ([2]; 12 h): 91%
- downregulation of viral protein expression levels (VP2) [21]: > 50%
- inhibition of EV-A71 replication, co-treatment [22]: ineffective inhibition; also recorded: no significant inhibition
- inhibition of EV-A71 replication, pre-treatment [23]: ineffective inhibition; also recorded: no significant inhibition
- luciferase signal, replication-competent replicon [24]: significantly decreased
- luciferase signal, replication-defective replicon [25]: significantly decreased

Compound: COc1ccc(C23Oc4cc(OC)cc(OC)c4C(O)(C2=O)C(c2ccccc2)C3c2ccccc2)cc1 (stereo not shown) [Compound 14]
- log reduction at 10 µM ([1]; EVA71, NSC-34, 12 h, screen, 10 µM, NSC-34 cells, EV-A71 MOI 1, 12 h, read-out: EV-A71 inhibition (logs), reduction in viral titre): ~1
- EV-A71 inhibition (logs), reduction in viral titre ([1]; screen, 10 µM, NSC-34 cells, EV-A71 MOI 1, 12 h): 1.0 logs
- Maximum viral titre reduction observed in dose response (Log) [7]: 0.82 Log
- EC50 [7]: 18.9 µM
- CC50 at 12 h ([8]; NSC-34 cells): 42.6 µM
- viability at 12 h, 10 µM [26]: 106%

Compound: COC(=O)C1C(c2ccccc2)C2(c3ccc(Br)cc3)C(=O)C1(O)c1c(OC)cc(OC)cc1N2C (stereo not shown) [Compound 15]
- log reduction at 10 µM [1, 29]: 1.2
- Maximum viral titre reduction observed in dose response (Log) [7]: 0.74 Log
- EC50 [7]: 5.27 µM
- CC50 at 12 h [8]: > 50 µM
- viability at 12 h, 10 µM [20]: 91%

Compound: COC(=O)C1C(c2ccccc2)C2(c3ccc(Br)cc3)C(O)C1(O)c1c(OC)cc(OC)cc1N2C (stereo not shown) [Compound 16]
- log reduction at 10 µM [1, 29]: 1.4
- antiviral activity in screen ([1]; screen, 10 µM, NSC-34 cells): showed antiviral activity
- Maximum viral titre reduction observed in dose response (Log) [7]: 0.89 Log
- EC50 [7]: 44.2 µM
- CC50 at 12 h [8]: > 50 µM
- viability at 12 h, 10 µM [20]: 81%

Compound: COC(=O)C1C(c2ccccc2)C2(c3ccc(OC)cc3)Oc3cc(OC)cc(OC)c3C1(O)C2O (stereo not shown) [Compound 17]
- log reduction at 10 µM [1, 29]: 0.1
- antiviral activity in screen ([1]; screen, 10 µM, NSC-34 cells): no measurable antiviral activity
- viability at 12 h, 10 µM [20]: 108%
- host cell cytotoxicity in screen [2]: non‐cytotoxic

Compound: COC(=O)C1C(c2ccccc2)C2(c3ccc(Br)cc3)Oc3cc(OC)cc(OC)c3C1(O)C2=O (stereo not shown) [Compound 18]
- CC50 at 12 h [8]: 13.1 µM
- host cell cytotoxicity in dose response [27]: significant degree of cytotoxicity
